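Dose response: 5 concentrations. Exposure: 48 h. Format: 96-well plates. Endpoint: linear interpolation; highest concentration if not reached. GI50 marks 50% less growth.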 Calls of active or inactive are those of the source. Rule as the data show it: active = GI50 up to about 1.1 µM and inactive = higher. Bounds are passed on as bounds.

What all share (test): NCI-60 cell line screen, 48 h
Assay [1] has as its system LXFL 529.
In assay [2] the test system is CCRF-CEM.
Assay [3] concerns SW-620.
Assay [4] deals with OVCAR-3.
Assay [5] concerns RXF 393.
The subject of assay [6] is SK-MEL-5.
In assay [7] the test system is Malme-3M.
Assay [8] has as its system NCI-H23.
The subject of assay [9] is NCI-H460.
The subject of assay [10] is HCT-15.
Assay [11] deals with TK-10.
Assay [12] relates to 786-0.
Assay [13] relates to SN12C.
The test system of assay [14] is HOP-62.
For assay [15], the system named is UO-31.
In assay [16] the test system is SNB-19.
In assay [17] the test system is EKVX.

`Cc1ccc(NC(=O)CSc2nnc(Cc3ccccc3)o2)cc1`: the GI50 in [1], in assay [2], in [3], in [4], in [5] and in [6] was > 100 µM (inactive) each time. Further, the GI50 in assay [7] was > 100 µM (inactive); in [8], > 100 µM (inactive); in assay [9], > 100 µM (inactive); in assay [10], greater than 100 µM; in assay [11], > 100 µM (inactive); in assay [12], > 100 µM (inactive). Besides, the GI50 in assay [13], in assay [14], in [15], in [16] and in assay [17] was > 100 µM (inactive) each time.
In the case of `CCOC(=O)c1c(NNc2ccccc2)nc2ccccc2c1-c1ccccc1`, the GI50 in [1] is 19 µM (inactive); in [2] it was 10.9 µM (inactive); in assay [3], 50.4 µM (inactive); in [4], 21.1 µM (inactive); in assay [5], 42 µM (inactive); in assay [6] it was 20.4 µM (inactive). The GI50 in [7] is 29.1 µM (inactive); in assay [8], 19.5 µM (inactive); in assay [9], 28.4 µM (inactive); in assay [10], 33 µM; in assay [11] it was 80.4 µM (inactive); in [12], 31.7 µM (inactive). Besides, the GI50 in assay [13] is 30.6 µM (inactive); in assay [14], 23.8 µM (inactive); in assay [15], 25.8 µM (inactive); in [16], 41.8 µM (inactive); in assay [17], 50.2 µM (inactive).
In the case of `Cc1ccc(S(=O)(=O)NC(C)C(=O)O)cc1` (stereo not given), the GI50 in assay [1], in assay [3], in [4], in assay [5], in [6] and in assay [7] was > 100 µM (inactive) throughout. For the same compound, the GI50 is > 100 µM (inactive) in [8]; > 100 µM (inactive) in assay [9]; greater than 100 µM in assay [10]; > 100 µM (inactive) in assay [11]; > 100 µM (inactive) in assay [12]; > 100 µM (inactive) in assay [13]. Besides, the GI50 in [15], in [16] and in assay [17] was > 100 µM (inactive) throughout.
As for `CCO/C([O-])=C(\C(=O)c1ccccc1)[n+]1c(C)sc2ccccc21`, the GI50 was 54.1 µM (inactive) in assay [1]; > 100 µM (inactive) in assay [2]; > 100 µM (inactive) in assay [3]; > 100 µM (inactive) in assay [4]; > 100 µM (inactive) in assay [5]; 16.7 µM (inactive) in assay [6]. Besides, the GI50 in assay [7] is 96.6 µM (inactive); in assay [8], 61.8 µM (inactive); in [9], 59.3 µM (inactive); in assay [10], 21.9 µM; in [11] it was > 100 µM (inactive); in assay [12], > 100 µM (inactive). Besides, the GI50 is > 100 µM (inactive) in assay [14], 50.6 µM (inactive) in assay [15], > 100 µM (inactive) in assay [16] and > 100 µM (inactive) in [17].
On to `COC(=O)C(=O)C(C(=O)C=C(C)C)C(=O)C(=O)Nc1cccc(C(C)=O)c1` (stereo not given), for which the GI50 in assay [1], in assay [2], in [3], in assay [4], in [5] and in assay [6] was > 100 µM (inactive) in each case. For the same compound, the GI50 was > 100 µM (inactive) in [7]; > 100 µM (inactive) in [8]; > 100 µM (inactive) in assay [9]; greater than 100 µM in assay [10]; > 100 µM (inactive) in assay [11]; > 100 µM (inactive) in [12]. For the same compound, the GI50 in assay [13], in assay [14], in assay [15], in assay [16] and in [17] was > 100 µM (inactive) each time.
Consider `CCc1cccc(CC)c1NC(=O)C1=CNC(C)=C(C(=O)Nc2c(CC)cccc2CC)C1c1ccc(O)c(OC)c1` (stereo not given), for which the GI50 in assay [1] was 27.1 µM (inactive); in assay [2], 21.5 µM (inactive); in assay [3], 30.3 µM (inactive); in [4] it was 19 µM (inactive); in [5] it was 25.3 µM (inactive); in assay [6], 32.3 µM (inactive). For the same compound, the GI50 was 28.1 µM (inactive) in assay [7]; 36.6 µM (inactive) in [8]; 31.6 µM (inactive) in [9]; 47.6 µM (inactive) in assay [11]; 34.4 µM (inactive) in assay [12]; 57.8 µM (inactive) in assay [13]. Further, the GI50 in assay [14] is 33.3 µM (inactive); in assay [15], 29.1 µM (inactive); in [16], 54.1 µM (inactive); in assay [17], 35.2 µM (inactive).
Take `O=C1C=CC(S(=O)(=O)C2=C/C(=C/Nc3ccc(Cl)cc3)C(=O)C=C2)=C/C1=C/Nc1ccc(Cl)cc1`: the GI50 in assay [1], in [2], in assay [3], in assay [4], in assay [5] and in assay [6] was > 100 µM (inactive) each time. The GI50 in [7], in assay [8], in [9], in [11], in [12] and in [13] was > 100 µM (inactive) each time. For the same compound, the GI50 in assay [14], in assay [15], in [16] and in assay [17] was > 100 µM (inactive) throughout.
Turning to `FC(F)(F)C12C34C=CC5(CCC6(C=CC1(CC3)O6)C52C(F)(F)F)O4` (stereo not given), the GI50 in assay [1] was > 100 µM (inactive); in assay [2], > 100 µM (inactive); in assay [3], > 100 µM (inactive); in [4] it was > 100 µM (inactive); in [5], 93.5 µM (inactive); in [7] it was > 100 µM (inactive). Further, the GI50 in assay [8], in [9], in assay [11], in [12], in [13] and in assay [14] was > 100 µM (inactive) in each case. Further, the GI50 in assay [16] and in assay [17] was > 100 µM (inactive) in each case.
Take `CCOc1ccccc1NC(=O)CCc1nnc2s/c(=C\CCc3ccccc3)c(=O)n12`: the GI50 in assay [1], in assay [2], in assay [3], in [4], in assay [5] and in [6] was > 100 µM (inactive) throughout. Besides, the GI50 was > 100 µM (inactive) in [7]; > 100 µM (inactive) in assay [8]; > 100 µM (inactive) in [9]; greater than 100 µM in assay [10]; > 100 µM (inactive) in assay [11]; > 100 µM (inactive) in [12]. The GI50 in assay [13], in assay [14], in assay [15] and in [16] was > 100 µM (inactive) throughout.
Take `CN1C(=O)N(C)C(N2CCCC2)c2c1nc1ccccn1c2=O` (stereo not given): the GI50 in [1] was 63.5 µM (inactive); in [2], 37.6 µM (inactive); in assay [3], 60.5 µM (inactive); in [4] it was 77.3 µM (inactive); in [5], 49 µM (inactive); in [7], > 100 µM (inactive). Moreover, the GI50 in assay [8] was > 100 µM (inactive); in assay [9], 76.4 µM (inactive); in assay [10], 56.6 µM; in [11], > 100 µM (inactive); in assay [12], 97.9 µM (inactive); in [13], 54.3 µM (inactive). For the same compound, the GI50 is > 100 µM (inactive) in assay [14], > 100 µM (inactive) in [15], 99.5 µM (inactive) in assay [16] and 43.3 µM (inactive) in assay [17].
Consider `CC(Oc1ccc(OCC2CCCCC2)cc1)C(=O)NCc1ccco1` (stereo not given), for which the GI50 in assay [1] was 35.6 µM (inactive); in assay [2], 41 µM (inactive); in assay [4], 40.6 µM (inactive); in assay [5], 22.6 µM (inactive); in assay [6], 15.7 µM (inactive); in assay [7], 27 µM (inactive). The GI50 in assay [9] is 48.1 µM (inactive); in assay [10], 48.1 µM; in assay [11] it was 84.7 µM (inactive); in assay [12], 34.6 µM (inactive); in assay [13], 51.1 µM (inactive); in [15], 28.3 µM (inactive). For the same compound, the GI50 in [16] was 74.3 µM (inactive).
As to `COCN1COCN/C1=N\C#N`, the GI50 in [1] was > 100 µM (inactive); in [3], 22.5 µM (inactive); in assay [4], > 100 µM (inactive); in [5], 83.2 µM (inactive); in assay [6], > 100 µM (inactive); in assay [7] it was > 100 µM (inactive). Moreover, the GI50 is > 100 µM (inactive) in assay [8]; > 100 µM (inactive) in assay [9]; 51.8 µM in assay [10]; > 100 µM (inactive) in assay [11]; > 100 µM (inactive) in [12]; > 100 µM (inactive) in assay [13]. Moreover, the GI50 in [14], in assay [15], in assay [16] and in [17] was > 100 µM (inactive) throughout.
For the compound `CC(=O)OC[C@]1(C)CCCC2(C)C1CCC1C=C(C)[C@H]3CCC12C3` (stereo not given in full), the GI50 was > 100 µM (inactive) in assay [1]; > 100 µM (inactive) in assay [2]; 31.6 µM (inactive) in [3]; 61.4 µM (inactive) in [4]; 44.4 µM (inactive) in assay [5]; > 100 µM (inactive) in [6]. The GI50 was > 100 µM (inactive) in assay [7]; 94.4 µM (inactive) in assay [8]; 33.7 µM (inactive) in assay [9]; 48.3 µM in [10]; > 100 µM (inactive) in assay [11]; 66.2 µM (inactive) in assay [12]. Further, the GI50 in [13] was 40.3 µM (inactive); in assay [14], 50.9 µM (inactive); in assay [15] it was > 100 µM (inactive); in [16], > 100 µM (inactive).

The record behind these values is ChEMBL document CHEMBL1201862, “PubChem BioAssay data set” (2004).
